Laboratory results: patent EP0433526A1, “Medicine for the treatment of heart-circulatory illnesses, of arrhythmics in particular” (Richter, Peter, Prof. Dr.sc.nat., priority 1989, dated 1991)

What was measured:
g-Strophantinarrhythmie = assay: g-Strophanthin arrhythmia, guinea pig, i.v.; assay type: in vivo, Meerschweinchen
Method: Die Methode beruht auf der Erzeugung ventrikulärer Arrhythmien durch g-Strophantin, das männlichen Meerschweinchen in Urethannarkose (Körpermasse 300-350 g) in der Dosierung von 30 µg/kg/min über die Vena jugularis infundiert wurde. Bewertungskriterien sind hierbei die am EKG unter g-Strophantin zu beobachtenden ersten Extrasystolen sowie der Eintritt der Asystolie. Die Verzögerung des Auftretens dieser Ereignisse unter Substanzgabe wird berechnet und ist als Maß der antiarrhythmischen Effektivität zu werten.

[1] = rat; for therapeutische Index (Q = LD₅₀/ED₂₀): acute test, intravenous injection
Infarktgröße = assay: Infarct size determination (p-NBT), rat, i.v.; assay type: in vivo, Ratte; conditions: for Hemmung der Infarktgröße x %: significant
Description: Die Bestimmung der Herzinfarktgröße ist ein wichtiger Parameter zum Nachweis antiischämischer Wirkqualitäten für eine Substanz. Die hier angewendete markohistochemische Infarktgrößenbestimmung durch Inkubation mit p-Nitroblautetrazoliumsalz (p-NBT) beruht auf einem Dehydrogenasenachweis, wobei p-NBT als Wasserstoffakzeptor dient und die damit verbundene Reduktion des Salzes zu einer Farbänderung desselben führt. Die Beeinflussung der Größe des ischämischen Areals - die Ischämie wurde durch Ligatur der linken Koronararterie männlicher Wistarratten (Körpermasse 200-250 g) erzeugt - wurde nach i.v. Applikation (3 min vor Okklusion) einiger Verbindungen der allgemeinen Formel 1 untersucht. Die hier erhobenen Befunde spiegeln eindeutig die myokardprotektive Wirkkomponente dieser Verbindungen wieder. […] (Beispiel 21) bzw. das (E)-/(Z)-2-Amino-5-chlorbenzophenon-N-phenylamidinohydrazonnitrat [B] (Beispiel 3) wurden die in Tabelle 9 wiedergegebenen Resultate erhalten. TABELLE 9

[2] = Toxicology, repeated oral dosing, rat; conditions: per os, repeated administration
[3] = test system: isoprenalininduzierten Glykogenolyse; assay: Isoprenaline ischaemia, rat, i.v. and p.o. (heart glycogen content); assay type: in vivo, Ratte; conditions: mean of n = 10
Method: Der Myokardschutz durch verschiedene Verbindungen der allgemeinen Formel 1 wurde nach i.v. und p.o. Applikation der Verbindungen am Modell der Isoprenalinischämie der Ratte geprüft. Die für diese Untersuchungen verwendete Methode erfaßt die Veränderungen des Glykogengehaltes im Herzgewebe unter Isoprenalin und dessen Beeinflussung durch Testsubstanzen. Isoprenalin wurde dabei intraperitoneal in Dosis von 5 mg/kg verabfolgt. Die i.v. Injektion der Prüfstoffe erfolgte unmittelbar vor der Isoprenalingabe, die orale Applikation 30 min davor. Als Versuchstiere wurden männliche Wistarratten (Körpermasse 200-250 g) eingesetzt. Einige der Verbindungen zeigten eine auffallende myokardprotektive Wirksamkeit. […] Die nach i.v.- bzw. p.o.-Applikation aus je n = 10 Tieren pro Dosis beobachteten Hemmwerte (Mittelwerte) gegenüber der Isoprenalininwirkung sind in Tabelle 8 aufgeführt. Tabelle 8

Koronararterienokklusion = assay: Coronary artery occlusion, rat, i.v. (early-phase arrhythmias); assay type: in vivo, Ratte; conditions: for Überlebensrate n. 20 min: 2 . 10⁻⁵ mol/kg i.v. 3 min before occlusion, control 33; for Normaler Sinusrhythmus / Tod durch Bradyk. / Auftreten von Arrhythmien VF / Auftreten von Arrhythmien VT / Auftreten von Arrhythmien andere: 2 . 10⁻⁵ mol/kg i.v.; for Normaler Sinusrhythmus: control 0; for Tod durch Bradyk.: control 30; for Auftreten von Arrhythmien VF: control 59; for Auftreten von Arrhythmien VT / Auftreten von Arrhythmien andere: control 82
Method: Die Untersuchungen zur Beeinflussung der Arrhythmien in der Frühphase nach Koronarokklusion erfolgten an männlichen Wistarratten (Körpermasse 200-250 g) in Pentobarbitalnarkose. Nach Ligatur der linken Koronararterie wurden die Überlebensrate sowie das Auftreten verschiedener Arrhythmieformen innerhalb 20 min nach Okklusion bewertet. Für die überlebenden Tiere erfolgten zusätzlich die Bestimmung des Zeitpunktes des Einsetzens der Arrhythmien und deren Dauer in min sowie die Zahl der ventrikulären Extrasystolen. Das Arrhythmiegeschehen in der Frühphase nach Ligatur wurde von einer Reihe Verbindungen der allgemeinen Formel 1 nach i.v.-Injektion im positiven Sinne beeinflußt. Beispielsweise wirken (Z)- bzw. (E)-2-Amino-5-chlorbenzophenonamidinohydrazonacetat (Beispiel 21 bzw. 32) dosisabhängig und stark protektiv nach i.v. Gabe (3 min vor Okklusion) von 1 . 10⁻⁵ und 2,1 . 10⁻⁵mol/kg. Die an der Aconitinarrhythmie gefundene gute antiarrhythmische Wirkung wurde damit an der Okklusion bestätigt, was durch die in Tabelle 7 zusammengestellten Ergebnisse dokumentiert werden soll. TABELLE 7

[4] = test system: schnellen Na⁺-Einwärtsstromes; assay: Voltage clamp on isolated adult rat heart cells
[5] = Toxicology, repeated oral dosing, minipig; conditions: per os, repeated administration
[6] = Clinical trial stage I, intravenous, man
[7] = 5 . 10⁻⁷ mol/kg i.v., significant vs control

Cl.N=C(N)N/N=C(\c1ccccc1)c1cc(Cl)ccc1N [Beispiel 30, (E)-2-Amino-5-chlorbenzophenonamidinohydrazonhydrochlorid]
Verzögerung des Eintritts der ersten Extrasystolen (g-Strophantinarrhythmie; 1,25 . 10⁻⁶ mol/kg i.v.): 33%

CCOC(=O)Nc1ccc2c(c1)N(C(=O)CCN1CCOCC1)c1ccccc1S2 [Etmozin]
therapeutische Index (Q = LD₅₀/ED₂₀) [1]: 1,8

(Z) -2-Amino-5-chlorbenzophenonamidinohydrazonacetat [Beispiel 21]
Verzögerung des Auftretens der ersten Extrasystolen (g-Strophantinarrhythmie; 6,25 . 10⁻⁷ mol/kg i.v. 5 min before g-strophanthin infusion, significant): 28% | ischämisches Gewebe x % (Infarktgröße; 2 . 10⁻⁵ mol/kg i.v. 3 min before occlusion, control 35,0): 15,2% | Hemmung der Infarktgröße x % (Infarktgröße; 2 . 10⁻⁵ mol/kg i.v.): 56,6 s % | Dosen als gut verträglich eingeschätzt [2]: 25 mg/kg | x % Hemmung ([3]; intravenös, 1,0 . 10⁻⁵ mol/kg): 48,7% | x % Hemmung ([3]; intravenös, 1,5 . 10⁻⁵ mol/kg): 37,6% | x % Hemmung ([3]; intravenös, 3,2 . 10⁻⁵ mol/kg): 45,0% | x % Hemmung ([3]; intravenös, 3,2 . 10⁻⁶ mol/kg): 5,9% | x % Hemmung ([3]; intravenös, 4,6 . 10⁻⁶ mol/kg): 26,7% | x % Hemmung ([3]; intravenös, 5,0 . 10⁻⁵ mol/kg): 69,6% | x % Hemmung ([3]; peroral, 1,0 . 10⁻⁴ mol/kg): 25,6% | x % Hemmung ([3]; peroral, 1,9 . 10⁻⁴ mol/kg): 81,4% | x % Hemmung ([3]; peroral, 3,7 . 10⁻⁴ mol/kg): 71,4% | x % Hemmung ([3]; peroral, 5,0 . 10⁻⁴ mol/kg): 85,3% | x % Hemmung ([3]; peroral, 7,2 . 10⁻⁵ mol/kg, 30 min before isoprenaline): 37,2% | therapeutische Index (Q = LD₅₀/ED₂₀) [1]: 40,0 | therapeutische Index Qp.o. ([1]; single oral administration): 74,3 | Überlebensrate n. 20 min (Koronararterienokklusion): 70 s % | Normaler Sinusrhythmus (Koronararterienokklusion): 26 s % | Tod durch Bradyk. (Koronararterienokklusion): 25 ns % | Auftreten von Arrhythmien VF (Koronararterienokklusion): 8 s % | Auftreten von Arrhythmien VT (Koronararterienokklusion): 13 s % | Auftreten von Arrhythmien andere (Koronararterienokklusion): 54 ns % | schneller Na⁺-Einwärtsstrom [4]: Hemmung | Dosen als gut verträglich eingeschätzt [5]: 30 mg/kg | Dosierung, ab der die antiarrhythmische Aktivität ausreichend erscheint [6]: ≥ 0,25 mg/kg | Dosis, bei der die antiarrhythmische Aktivität beginnt [6]: 0,06 mg/kg

(E)-2-Amino-5-chlorbenzophenonamidinohydrazonacetat [Beispiel 32]
Überlebensrate n. 20 min (Koronararterienokklusion): 71 s % | Normaler Sinusrhythmus (Koronararterienokklusion): 46 s % | Tod durch Bradyk. (Koronararterienokklusion): 19 ns % | Auftreten von Arrhythmien VF (Koronararterienokklusion): 8 s % | Auftreten von Arrhythmien VT (Koronararterienokklusion): 13 s % | Auftreten von Arrhythmien andere (Koronararterienokklusion): 54 ns %

CC[C@H]1C2C[C@H]3[C@@H]4N(C)c5ccccc5[C@]45C[C@@H]([C@@H]2[C@H]5O)[N@@+]3(CC(O)CN(CC)CC)[C@@H]1O (some centres unmarked) [Tachmalcor]
therapeutische Index (Q = LD₅₀/ED₂₀) [1]: 25,5

CCOc1ccccc1OCC(O)CNCCNCC(O)COc1ccccc1OCC (centres unmarked) [Falirythmin]
therapeutische Index (Q = LD₅₀/ED₂₀) [1]: 11,5

CC[C@H]1[C@@H]2C[C@H]3[C@@H]4N(C)c5ccccc5[C@]45C[C@@H]([C@@H]2[C@H]5O)N3[C@@H]1O [Ajmalin]
therapeutische Index (Q = LD₅₀/ED₂₀) [1]: 6,8

N=C(NN=C(c1ccccc1)c1cc(Cl)ccc1N)Nc1ccccc1.O=[N+]([O-])O [Beispiel 3, (E)-/(Z)-2-Amino-5-chlorbenzophenon-N-phenylamidinohydrazonnitrat]
antiarrhythmische Wirkung gegenüber der g-strophantininduzierten Extrasystolie (g-Strophantinarrhythmie; 1 . 10⁻⁶ mol/kg i.v.): +19% | antiarrhythmische Wirkung gegenüber der g-strophantininduzierten Extrasystolie (g-Strophantinarrhythmie; 2,10 . 10⁻⁶ mol/kg i.v.): +35% | ischämisches Gewebe x % (Infarktgröße; 1 . 10⁻⁷ mol/kg i.v. 3 min before occlusion, control 46,1): 21,0% | Hemmung der Infarktgröße x % (Infarktgröße; 1 . 10⁻⁷ mol/kg i.v.): 54,4 s % | normalen Sinusrhythmus (Koronararterienokklusion; 5 . 10⁻⁷ mol/kg i.v.): 50% | Auftreten verschiedener Arrhythmieformen (VF) (Koronararterienokklusion; [7]): 10% | Auftreten verschiedener Arrhythmieformen (VT) (Koronararterienokklusion; [7]): 30% | Auftreten verschiedener Arrhythmieformen (andere) (Koronararterienokklusion; [7]): 50% | Überlebensrate (Koronararterienokklusion; [7]): 80%
